Measurements published in PMC12787591 (Nutrients, 2025).

Biological target: T1, α-amylase (α-salivary amylase)
T1 construct: gene AMY1A
Test: enzyme inhibition assay with soluble starch and […],5-dinitrosalicylic acid
Type: biochemical, Homo sapiens

OC[C@H]1NC[C@H](O)[C@@H](O)[C@@H]1O [DNJ, 1-Deoxynojirimycin]
α-Amylase Experiment / IC50: 22.69 µg/mL
